Data from patent US20020177616A1, “Use of chromans” (priority 2001, published 2002).
pEC50: −log10 of the molar value. Where a name gives a salt, the structure may show the parent alone.

Key:
[1] = molecular target: T1, human recombinant 5-HT1A receptors (Homo sapiens, UniProt P08908); experiment: GTP gamma[S-35] binding, agonistic action on human recombinant 5-HT1A receptors; assay type: biochemical; settings: for pEC50: GTP gamma[S-35] binding, human recombinant 5-HT1A receptors
T1 sequence (P08908 1-422): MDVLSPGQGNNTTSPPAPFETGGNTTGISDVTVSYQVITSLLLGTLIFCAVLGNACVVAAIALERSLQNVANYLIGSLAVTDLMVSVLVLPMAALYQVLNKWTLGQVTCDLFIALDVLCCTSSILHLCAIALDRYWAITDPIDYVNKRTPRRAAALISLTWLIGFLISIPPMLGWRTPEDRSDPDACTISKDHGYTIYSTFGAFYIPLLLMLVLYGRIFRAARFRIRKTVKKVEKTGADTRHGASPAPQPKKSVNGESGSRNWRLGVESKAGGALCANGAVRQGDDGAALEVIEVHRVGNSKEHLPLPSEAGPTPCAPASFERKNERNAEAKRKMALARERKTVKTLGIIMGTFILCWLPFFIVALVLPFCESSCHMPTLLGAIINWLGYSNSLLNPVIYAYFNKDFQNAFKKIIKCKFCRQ
Protocol: Determination of the Avonistic action on Human Recombinant 5-HT1A Receptors
Signal transduction studies were carried out on human recombinant 5-HT1A receptors using the guanosine 5′-O-(3-[S-35]thio)-triphosphate (GTP gamma[S-35]) binding technique (modified according to Elliott and Reynolds Europ J. Pharmacol 1999, 386, 313-315 and Sim et al. J. Neurosci 1996, 16, 8057-8066).

[2] = system: MPTP-monkey model; experiment: chronic MPTP monkey model of Parkinson's disease; assay type: in vivo, rhesus monkeys (Macaca fascicularis); parameters: key to Slowing of the development of Parkinsonism: 0 = No slowing of the development of parkinsonism; + = Statistically significant delay in the attainment of Score 8; settings: for Symptomatology on the last 3 days: MPTP only group = 100%

pEC50 [1] | potency relative to repinotan hydrochloride ([1]; 5-HT1A agonism, from EC50 values) | SMILES | neuroprotective activity after oral administration ([2]; 2 mg/kg p.o. bid) | symptomatic action ([2]; 2 mg/kg p.o. bid) | Slowing of the development of Parkinsonism ([2]; MPTP 0.2 mg/kg i.v. daily + 2.0 mg/kg p.o. bid) | Symptomatology on the last 3 days ([2]; MPTP + 2.0 mg/kg p.o. bid) | neuroprotective activity after oral administration ([2]; 1 mg/kg p.o. bid) | reduction of the degree of severity of the symptoms (symptomatic action) compared with control ([2]; 1 mg/kg p.o. bid) | Slowing of the development of Parkinsonism ([2]; MPTP 0.2 mg/kg i.v. daily + 1.0 mg/kg p.o. bid) | Symptomatology on the last 3 days ([2]; MPTP + 1.0 mg/kg p.o. bid)
9.29 |  | Cl.O=C1c2ccccc2S(=O)(=O)N1CCCCNC[C@H]1CCc2ccccc2O1 [Repinotan hydrochloride, 2-[4-({[(2R)-chroman-2-yl]methyl}amino)butyl]-1,2-benzisothiazol-3(2H)-one 1,1-dioxide hydrochloride, reference compound] | slowed the development of the parkinsonism symptoms | not observed | + | 100% |  |  |  | 
9.72 | approximately twice | CC(C)Oc1cccc2c1O[C@@H](CNCCCCN1C(=O)c3ccccc3S1(=O)=O)CC2 [Example 11, 2-[4-({[(2R)-8-isopropoxy-chroman-2-yl]methyl}amino)butyl]-1,2-benzisothiazol-3(2H)-one 1,1-dioxide hydrochloride] |  |  |  |  | slowed the development of the parkinsonism symptoms | 22% | + | 78%
